{"source": "patent US20220289685A1", "about": "“ANTIMALARIAL HEXAHYDROPYRIMIDINE ANALOGUES” (UCB BIOPHARMA SRL, priority 2019, published 2022)", "note": "Structures can show the parent of a compound that is named as a salt."}
{"tested_on": "Plasmodium falciparum 3D7 strain", "experiment": "P. falciparum 3D7 asexual blood stage assay (SYBR green readout)", "assay_type": "cell-based", "details": "Plasmodium falciparum, 3D7, Erythrocyte, 72 h", "summary_of_the_method": "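P. falciparum 3D7 in A+ erythrocytes (5% haematocrit, 0.5% parasitaemia) exposed 72 h at 37 °C under 1% O2/3% CO2 to 20-point 1.5-fold titrations, 50,000–15 nM in 0.5% DMSO. SYBR green lysis overnight, fluorescence 485/528 nm; normalized to mefloquine and DMSO, EC50 from biphasic two-site fit.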", "units": {"IC50": "nM"}}
{"smiles": "C[C@@H]1C[C@H](N2C(=N)N[C@](C)(c3cccc(NC(=O)c4ccc(OCC(F)(F)F)nc4)c3Cl)CC2=O)CCO1", "note": "(relative stereo) [Example 58, N-(2-Chloro-3-{(4S)-2-imino-4-methyl-1-[(2R*,4R*)-2-methyl-tetrahydropyran-4-yl]-6-oxo-hexahydropyrimidin-4-yl]phenyl)-6-(2,2,2-trifluoroethoxy)pyridine-3-carboxamide hydrochloride]", "IC50": 438}
{"smiles": "C[C@@H]1C[C@H](N2C(=N)N[C@](C)(c3cccc(NC(=O)c4ccc(C(F)(F)F)nn4)c3Cl)CC2=O)CCO1", "note": "(relative stereo) [Example 59, N-(2-Chloro-3-{(4S)-2-imino-4-methyl-1-[(2R*,4R*)-2-methyl-tetrahydropyran-4-yl]-6-oxo-hexahydropyrimidin-4-yl]phenyl)-6-(trifluoromethyl)pyridazine-3-carboxamide hydrochloride]", "IC50": 114}
{"smiles": "C[C@@H]1C[C@H](N2C(=N)N[C@](C)(c3cccc(NC(=O)c4cccnc4)c3Cl)CC2=O)CCO1", "note": "(relative stereo) [Example 7, N-(2-Chloro-3-{(4S)-2-imino-4-methyl-1-[(2R*,4R*)-2-methyl-tetrahydropyran-4-yl]-6-oxo-hexahydropyrimidin-4-yl}phenyl)-pyridine-3-carboxamide hydrochloride]", "IC50": 29}
{"smiles": "Cc1ccnc(C(=O)Nc2cccc([C@]3(C)CC(=O)N([C@@H]4CCO[C@H](C)C4)C(=N)N3)c2Cl)n1", "note": "(relative stereo) [Example 78, N-(2-Chloro-3-{(4S)-2-imino-4-methyl-1-[(2R*,4R*)-2-methyl-tetrahydropyran-4-yl]-6-oxo-hexahydropyrimidin-4-yl}phenyl)-4-methylpyrimidine-2-carboxamide hydrochloride]", "IC50": 27}
{"smiles": "C[C@@H]1C[C@H](N2C(=N)N[C@](C)(c3cccc(NC(=O)c4cncn4C)c3Cl)CC2=O)CCO1", "note": "(relative stereo) [Example 103, N-(2-Chloro-3-{(4S)-2-imino-4-methyl-1-[(2R*,4R*)-2-methyl-tetrahydropyran-4-yl]-6-oxo-hexahydropyrimidin-4-yl}phenyl)-3-methylimidazole-4-carboxamide hydrochloride]", "IC50": 17}
{"smiles": "C[C@@H]1C[C@H](N2C(=N)N[C@](C)(c3cccc(NC(=O)c4cc(F)cc(C#N)c4)c3Cl)CC2=O)CCO1", "note": "(relative stereo) [Example 99, N-(2-Chloro-3-{(4S)-2-imino-4-methyl-1-[(2R*,4R*)-2-methyl-tetrahydropyran-4-yl]-6-oxo-hexahydropyrimidin-4-yl}phenyl)-3-cyano-5-fluorobenzamide hydrochloride]", "IC50": 18}
{"smiles": "CC#Cc1cccc(C(=O)Nc2cccc([C@]3(C)CC(=O)N([C@@H]4CCO[C@H](C)C4)C(=N)N3)c2Cl)c1", "note": "(relative stereo) [Example 109, N-(2-Chloro-3-{(4S)-2-imino-4-methyl-1-[(2R*,4R*)-2-methyl-tetrahydropyran-4-yl]-6-oxo-hexahydropyrimidin-4-yl}phenyl)-3-(prop-1-ynyl)benzamide hydrochloride]", "IC50": 23}
{"smiles": "C[C@@H]1C[C@H](N2C(=N)N[C@](C)(c3cccc(NC(=O)c4ccncc4C(F)(F)F)c3Cl)CC2=O)CCO1", "note": "(relative stereo) [Example 89, N-(2-Chloro-3-{(4S)-2-imino-4-methyl-1-[(2R*,4R*)-2-methyl-tetrahydropyran-4-yl]-6-oxo-hexahydropyrimidin-4-yl}phenyl)-3-(trifluoromethyl)pyridine-4-carboxamide trifluoroacetic acid salt]", "IC50": 373}
{"smiles": "C[C@@H]1C[C@H](N2C(=N)N[C@](C)(c3cccc(NC(=O)c4ccc(F)cn4)c3Cl)CC2=O)CCO1", "note": "(relative stereo) [Example 13, N-(2-Chloro-3-{(4S)-2-imino-4-methyl-1-[(2R*,4R*)-2-methyl-tetrahydropyran-4-yl]-6-oxo-hexahydropyrimidin-4-yl]phenyl)-5-fluoropyridine-2-carboxamide hydrochloride]", "IC50": 11}
{"smiles": "C[C@H]1C[C@@H](N2C(=N)N[C@](C)(c3cccc(NC(=O)c4cccc(C#N)c4)c3Cl)CC2=O)CCC1(F)F", "note": "(relative stereo) [Example 26, N-(2-Chloro-3-{(4S)-1-[(1S*,3S*)-4,4-difluoro-3-methylcyclohexyl]-2-imino-4-methyl-6-oxohexahydro-pyrimidin-4-yl]phenyl)-3-cyano-benzamide trifluoroacetic acid salt]", "IC50": 15}
{"smiles": "C[C@@H]1C[C@H](N2C(=N)N[C@](C)(c3cccc(NC(=O)c4cnc5ccccc5c4)c3Cl)CC2=O)CCO1", "note": "(relative stereo) [Example 33, N-(2-Chloro-3-{(4S)-2-imino-4-methyl-1-[(2R*,4R*)-2-methyl-tetrahydropyran-4-yl]-6-oxo-hexahydropyrimidin-4-yl}phenyl)-quinoline-3-carboxamide trifluoroacetic acid salt]", "IC50": 54}
{"smiles": "C[C@@H]1C[C@H](N2C(=N)N[C@](C)(c3cccc(NC(=O)c4ccc(C#N)o4)c3Cl)CC2=O)CCO1", "note": "(relative stereo) [Example 115, N-(2-Chloro-3-{(4S)-2-imino-4-methyl-1-[(2R*,4R*)-2-methyl-tetrahydropyran-4-yl]-6-oxo-hexahydropyrimidin-4-yl]phenyl)-5-cyanofuran-2-carboxamide trifluoroacetic acid salt]", "IC50": 18}
{"smiles": "C[C@@H]1C[C@H](N2C(=N)N[C@](C)(c3cccc(NC(=O)c4nnc5ccccn45)c3Cl)CC2=O)CCO1", "note": "(relative stereo) [Example 62, N-(2-Chloro-3-{(4S)-2-imino-4-methyl-1-[(2R*,4R*)-2-methyl-tetrahydropyran-4-yl]-6-oxo-hexahydropyrimidin-4-yl]phenyl)-[1,2,4]triazolo[4,3-a]pyridine-3-carboxamide hydrochloride]", "IC50": 23}
{"smiles": "C[C@@H]1C[C@H](N2C(=N)N[C@](C)(c3cccc(NC(=O)c4cc5cccc(F)c5o4)c3Cl)CC2=O)CCO1", "note": "(relative stereo) [Example 44, N-(2-Chloro-3-{(4S)-2-imino-4-methyl-1-[(2R*,4R*)-2-methyl-tetrahydropyran-4-yl]-6-oxo-hexahydropyrimidin-4-yl]phenyl)-7-fluorobenzofuran-2-carboxamide trifluoroacetic acid salt]", "IC50": 20}
{"smiles": "C[C@@H]1C[C@H](N2C(=N)N[C@](C)(c3cccc(NC(=O)c4cncc(Cl)c4)c3Cl)CC2=O)CCO1", "note": "(relative stereo) [Example 39, 5-Chloro-N-(2-chloro-3-{(4S)-2-imino-4-methyl-1-[(2R*,4R*)-2-methyltetrahydropyran-4-yl]-6-oxo-hexahydropyrimidin-4-yl}phenyl)-pyridine-3-carboxamide trifluoroacetic acid salt]", "IC50": 19}
{"smiles": "C[C@@H]1C[C@H](N2C(=N)N[C@](C)(c3cccc(NC(=O)c4ncccn4)c3Cl)CC2=O)CCO1", "note": "(relative stereo) [Example 15, N-(2-Chloro-3-{(4S)-2-imino-4-methyl-1-[(2R*,4R*)-2-methyl-tetrahydropyran-4-yl]-6-oxo-hexahydropyrimidin-4-yl}phenyl)-pyrimidine-2-carboxamide hydrochloride]", "IC50": 37}
{"smiles": "C[C@@H]1C[C@H](N2C(=N)NC(C)(c3cccc(NC(=O)c4ccc(Cl)cc4F)c3Cl)CC2=O)CCO1", "note": "(relative stereo) [Example 67, 4-Chloro-N-(2-chloro-3-{(4S)-2-imino-4-methyl-1-[(2R*,4R*)-2-methyltetrahydropyran-4-yl]-6-oxo-hexahydropyrimidin-4-yl}phenyl)-2-fluorobenzamide hydrochloride]", "IC50": 26}
